Patent publication US12611446B2, “Cannabinoid product for improving musculoskeletal health” (Lonza Greenwood LLC, priority 2019, dated 2026)
Marks after values point to notes of the source that are not given here.

Tests used:
[1] = tested on: Sodium Monoiodoacetate Induced Osteoarthritis(OA) in Rats; assay: Effect of UC-II undenatured Type II collagen and cannabidiol on sodium monoiodoacetate (MIA) induced osteoarthritis in rats: metabolic, inflammatory and oxidative stress markers; format: in vivo; settings: MIA-induced OA male Wistar rats, 30 days; for COMP (cartilage oligomeric matrix protein) / CRP (c-reactive protein) / IL-1β (interleukin-1β) / IL-6 (interleukin-6) / PGE2 (prostaglandin E2) / TNF-α (tumor necrosis factor α): serum
Description: OA was induced in male Wistar rats by intra-articular injection of sodium monoiodoacetate (MIA: 1 mg/kg). Treatment was started a week before injection with MIA and lasted 30 days. Biomarker testing was conducted prior to 24 days post MIA.

[2] = tested on: Sodium Monoiodoacetate Induced Osteoarthritis(OA) in Rats; assay: Effect of UC-II undenatured Type II collagen and cannabigerol on sodium monoiodoacetate (MIA) induced osteoarthritis in rats: metabolic, inflammatory and oxidative stress markers; format: in vivo; settings: MIA-induced OA female rats, 30 days
Description: […] Treatment was started a week before injection with MIA and lasted 30 days. Biomarker testing was conducted prior to 24 days post MIA.
The dosage levels were the same.

[3] = CBD1 = CBD 1.62 mg/kg (combination: + UC-II 4 mg/kg)
[4] = CBD2 = CBD 3.24 mg/kg (combination: + UC-II 4 mg/kg)
[5] = CBGI = CBG 1.62 mg/kg (combination: + UC-II 4 mg/kg)
[6] = CBGII = CBG 3.24 mg/kg (combination: + UC-II 4 mg/kg)

C=C(C)[C@@H]1CCC(C)=C[C@H]1c1c(O)cc(CCCCC)cc1O [CBD, cannabidiol] was tested, and the “ALB (Albumin)” value [1, 3] was 3.59 ± 0.13^ab g/dL, the “ALP (Alkaline phosphatase)” value [1, 3] was 137.14 ± 8.95^a U/L and the “ALT (Alanine aminotransferase)” value [1, 3] was 69.14 ± 7.63 U/L. The “AST (Aspartate aminotransferase)” value [1, 3] was 108.43 ± 13.4 U/L, the “BUN (Blood Urine Nitrogen)” value [1, 3] was 23.57 ± 2.27 mg/dL and the “CAT (catalase)” value [1, 3] was 125.79 ± 7.41^d U/mL. For the same compound, the “CR (Creatine)” value [1, 3] was 0.45 ± 0.11 mg/dL, the “GLOB (Globulin)” value [1, 3] was 3.16 ± 0.05^b g/dL and the “GLU (Glucose)” value [1, 3] was 112.43 ± 11.52 mg/dL. The “MDA (malondialdehyde)” value [1, 3] was 1.28 ± 0.08^b nmol/mL, the “OCN (osteocalcin)” value [1, 3] was 28.20 ± 1.74^e μg/mL and the “SOD (superoxide dismutase)” value [1, 3] was 50.00 ± 1.82^de U/mL. For the same compound, the “TBIL (Total Bilirubin)” value [1, 3] was 0.20 ± 0.01 mg/dL, the “TP (Total Protein)” value [1, 3] was 6.71 ± 0.17 g/dL and the “ALB (Albumin)” value [1, 4] was 3.57 ± 0.14^ab g/dL. For the same compound, the “ALP (Alkaline phosphatase)” value [1, 4] was 140.43 ± 8.40^a U/L, the “ALT (Alanine aminotransferase)” value [1, 4] was 70.29 ± 5.56 U/L and the “AST (Aspartate aminotransferase)” value [1, 4] was 110.29 ± 12.58 U/L. For the same compound, the “BUN (Blood Urine Nitrogen)” value [1, 4] was 24.23 ± 1.27 mg/dL, the “CAT (catalase)” value [1, 4] was 139.36 ± 3.44b^c U/mL and the “CR (Creatine)” value [1, 4] was 0.45 ± 0.08 mg/dL. For the same compound, the “GLOB (Globulin)” value [1, 4] was 3.27 ± 0.23^ab g/dL, the “GLU (Glucose)” value [1, 4] was 109.86 ± 5.81 mg/dL and the “GSH-Px (glutathione peroxidase)” value [1, 4] was 85.31 ± 3.85^bc U/mL. For the same compound, the “MDA (malondialdehyde)” value [1, 4] was 1.24 ± 0.16^b nmol/mL, the “OCN (osteocalcin)” value [1, 4] was 33.35 ± 3.18^d μg/mL and the “SOD (superoxide dismutase)” value [1, 4] was 58.04 ± 2.76^c U/mL. For the same compound, the “TBIL (Total Bilirubin)” value [1, 4] was 0.20 ± 0.01 mg/dL, the “TP (Total Protein)” value [1, 4] was 6.87 ± 0.37 g/dL and the “COMP (cartilage oligomeric matrix protein)” value [1, 3] was 21.22 ± 1.77^c ng/mL. For the same compound, the “CRP (c-reactive protein)” value [1, 3] was 6.39 ± 1.06^c mg/L, the “IL-1β (interleukin-1β)” value [1, 3] was 34.92 ± 2.23^bc pg/mL and the “IL-6 (interleukin-6)” value [1, 3] was 30.83 ± 2.17^c pg/mL. The “PGE2 (prostaglandin E2)” value [1, 3] was 504.41 ± 37.35^bc pg/mL, the “TNF-α (tumor necrosis factor α)” value [1, 3] was 46.58 ± 0.87^c pg/mL and the “COMP (cartilage oligomeric matrix protein)” value [1, 4] was 16.32 ± 1.91^d ng/mL. The “CRP (c-reactive protein)” value [1, 4] was 3.95 ± 0.20^d mg/L, the “IL-1β (interleukin-1β)” value [1, 4] was 31.94 ± 1.91^cd pg/mL and the “IL-6 (interleukin-6)” value [1, 4] was 28.65 ± 2.17^c pg/mL. The “PGE2 (prostaglandin E2)” value [1, 4] was 469.24 ± 11.42^cd pg/mL and the “TNF-α (tumor necrosis factor α)” value [1, 4] was 41.97 ± 1.31^c pg/mL.
With CCCCCc1cc(O)c(C/C=C(\C)CCC=C(C)C)c(O)c1 [CBG, cannabigerol] the “CAT (catalase)” value [2, 5] was 136.44 ± 4.10^bc U/mL, the “COMP (cartilage oligometrix matrix protein)” value [2, 5] was 21.68 ± 2.13^b ng/mL and the “CRP (c-reactive protein)” value [2, 5] was 7.04 ± 0.85^b mg/L. For the same compound, the “GSH-Px (glutathione peroxidase)” value [2, 5] was 75.87 ± 4.87^bc U/mL, the “IL-1β (interleukin-1β)” value [2, 5] was 35.08 ± 3.41^b pg/mL and the “IL-6 (interleukin-6)” value [2, 5] was 33.14 ± 4.07^b pg/mL. For the same compound, the “IL-10 (interleukin-10)” value [2, 5] was 47.42 ± 5.77^d pg/mL, the “MDA (malondialdehyde)” value [2, 5] was 1.57 ± 0.07^b nmol/mL and the Osteocalcin [2, 5] was 28.15 ± 1.34^ef μg/mL. The “PGE2 (prostaglandin E2)” value [2, 5] was 483 ± 36.86^b pg/mL, the “SOD (superoxide dismutase)” value [2, 5] was 49.13 ± 5.76^bc U/mL and the “TNF-α (tumor necrosis factor α)” value [2, 5] was 56.95 ± 5.61^b pg/mL. For the same compound, the “CAT (catalase)” value [2, 6] was 138.82 ± 2.71^b U/mL, the “COMP (cartilage oligometrix matrix protein)” value [2, 6] was 20.42 ± 2.16^b ng/mL and the “CRP (c-reactive protein)” value [2, 6] was 6.45 ± 0.82^bc mg/L. For the same compound, the “GSH-Px (glutathione peroxidase)” value [2, 6] was 77.29 ± 5.83^b U/mL, the “IL-1β (interleukin-1β)” value [2, 6] was 34.05 ± 2.80^b pg/mL and the “IL-6 (interleukin-6)” value [2, 6] was 32.41 ± 3.81^b pg/mL. For the same compound, the “IL-10 (interleukin-10)” value [2, 6] was 46.17 ± 4.91^d pg/mL, the “MDA (malondialdehyde)” value [2, 6] was 1.60 ± 0.07^b nmol/mL and the Osteocalcin [2, 6] was 30.82 ± 1.35^de μg/mL. For the same compound, the “PGE2 (prostaglandin E2)” value [2, 6] was 473.71 ± 40.89^b pg/mL, the “SOD (superoxide dismutase)” value [2, 6] was 51.13 ± 3.75^bc U/mL and the “TNF-α (tumor necrosis factor α)” value [2, 6] was 54.32 ± 5.01^b pg/mL.
